Data set [1] has as its system CCRF-CEM. In words: Induction of apoptosis in human CCRF-CEM cells assessed as late apoptotic cells at 1 time IC50 incubated for 24 hrs by Annexin V and propidium iodide staining based flow cytometry analysis (reference value: […]). It is filed as functional. Background: A flow cytometer gives signals particle by particle.
Another data set relates to U2OS. In words: Cytotoxicity against human U2OS cells assessed as reduction in cell viability incubated for 72 hrs by MTS assay. It is filed as functional, cell-based. (In general: Tetrazolium assays rely on reduction of a dye to a coloured formazan, in cell work by metabolically active cells.)
In data set [2] the test system is CCRF-CEM. In words: Induction of apoptosis in human CCRF-CEM cells assessed as viable cells at 5 times IC50 incubated for 24 hrs by Annexin V and propidium iodide staining based flow cytometry analysis […]. It is filed as functional.
Data set [3] can be described thus: Cytotoxicity against human MRC5 cells assessed as reduction in cell viability incubated for 72 hrs by MTS assay. The data set is classed as toxicity, cell-based.
The subject of data set [4] is CCRF-CEM. Nature of the data set: Induction of apoptosis in human CCRF-CEM cells assessed as PARP cleavage at 1 to 5 times IC50 incubated for 24 hrs by Western blot analysis. It is filed as functional, cell-based. In general terms: A western blot detects proteins with antibodies after separation by electrophoresis.
The subject of data set [5] is CCRF-CEM. In words: Induction of apoptosis in human CCRF-CEM cells assessed as increase in Noxa expression at 1 to 5 times IC50 incubated for 24 hrs by Western blot analysis. It is filed as functional, cell-based.
Data set [6] has as its system CCRF-CEM. In words: Cytotoxicity against human CCRF-CEM cells assessed as reduction in cell viability incubated for 72 hrs by MTS assay. It is filed as functional, cell-based.
Data set [7] concerns CCRF-CEM. In words: Induction of apoptosis in human CCRF-CEM cells assessed as accumulation of Bid protein expression at 1 to 5 times IC50 incubated for 24 hrs by Western blot analysis. It is filed as functional, cell-based.
In a further data set the test system is A549. Nature of the data set: Cytotoxicity against human A549 cells assessed as reduction in cell viability incubated for 72 hrs by MTS assay. It is filed as functional, cell-based. Conditions: A549, 72 h.
The nature of data set [8]: Cytotoxicity against human HCT116-p53-null cells assessed as reduction in cell viability incubated for 72 hrs by MTS assay. It is filed as functional, cell-based.
Data set [9] can be described thus: Cytotoxicity against human BJ cells assessed as reduction in cell viability incubated for 72 hrs by MTS assay. The data set is classed as toxicity, cell-based.
The subject of another data set is CEM-DNR. In words: Cytotoxicity against human CEM-DNR cells assessed as reduction in cell viability incubated for 72 hrs by MTS assay. The data set is classed as functional, cell-based.
Data set [10] relates to CCRF-CEM. Nature of the data set: Induction of apoptosis in human CCRF-CEM cells assessed as early apoptotic cells at 1 time IC50 incubated for 24 hrs by Annexin V and propidium iodide staining based flow cytometry analysis (reference value: […]). The data set is classed as functional.
Data set [11] relates to CCRF-CEM. In words: Induction of apoptosis in human CCRF-CEM cells assessed as late apoptotic cells at 5 times IC50 incubated for 24 hrs by Annexin V and propidium iodide staining based flow cytometry analysis […]. It is filed as functional.
Data set [12] concerns CCRF-CEM. Nature of the data set: Induction of apoptosis in human CCRF-CEM cells assessed as necrotic cells at 5 times IC50 incubated for 24 hrs by Annexin V and propidium iodide staining based flow cytometry analysis […]. It is filed as functional.
Data set [13] has as its system CCRF-CEM. In words: Induction of apoptosis in human CCRF-CEM cells assessed as early apoptotic cells at 5 times IC50 incubated for 24 hrs by Annexin V and propidium iodide staining based flow cytometry analysis […]. The data set is classed as functional.
Data set [14] has as its system CCRF-CEM. In words: Induction of apoptosis in human CCRF-CEM cells assessed as necrotic cells at 1 time IC50 incubated for 24 hrs by Annexin V and propidium iodide staining based flow cytometry analysis (reference value: 0.0%). The data set is classed as functional.
The test system of data set [15] is CCRF-CEM. Nature of the data set: Induction of apoptosis in human CCRF-CEM cells assessed as viable cells at 1 time IC50 incubated for 24 hrs by Annexin V and propidium iodide staining based flow cytometry analysis […]. The data set is classed as functional.
In the next data set the test system is K562. In words: Cytotoxicity against human K562 cells assessed as reduction in cell viability incubated for 72 hrs by MTS assay. The data set is classed as functional, cell-based. The settings on record: K562, 72 h.
Data set [16] concerns CCRF-CEM. Nature of the data set: Induction of apoptosis in human CCRF-CEM cells assessed as accumulation of Bax protein expression at 1 to 5 times IC50 incubated for 24 hrs by Western blot analysis. It is filed as functional, cell-based.
In data set [17] the test system is CCRF-CEM. Nature of the data set: Induction of apoptosis in human CCRF-CEM cells assessed as decrease in c-Myc expression at 1 to 5 times IC50 incubated for 24 hrs by Western blot analysis. The data set is classed as functional, cell-based.
The test system of another data set is HCT-116. Nature of the data set: Cytotoxicity against human HCT-116 cells assessed as reduction in cell viability incubated for 72 hrs by MTS assay. The data set is classed as functional, cell-based. Conditions: HCT-116, 72 h.
Data set [18] can be described thus: Cytotoxicity against human K562-Tax cells assessed as reduction in cell viability incubated for 72 hrs by MTS assay. The data set is classed as functional, cell-based.

Calls of active or inactive are those of the source. The calls are words filed in the database; no cut-off is given here. Bounds are passed on as bounds.

One may read the IC50 as the point on the concentration scale where inhibition reaches its midpoint. As to `C=C(C)[C@@H]1CC[C@]2(C(=O)OCc3oc(=O)oc3C)CC[C@]3(C)[C@H](CC[C@@H]4[C@@]5(C)CC[C@H](O)C(C)(C)[C@@H]5CC[C@]43C)[C@@H]12`, the Activity is 1.9% in the data set on CCRF-CEM [1]; 83.7% in the data set on CCRF-CEM [2]; 2.1% in the data set on CCRF-CEM [10]; 3.4% in the data set on CCRF-CEM [11]; 6.8% in the data set with CCRF-CEM [12]; 6.1% with CCRF-CEM [13]. Besides, the Activity in the data set on CCRF-CEM [14] is reported as 8.7%; with CCRF-CEM [15] it was 87.4%. Moreover, the half-maximal inhibitory concentration (IC50) in the data set on U2OS was 19 µM; in the data set on CCRF-CEM [6], 4.5 µM; in the data set on A549 it was 13 µM; in data set [8] it was 15 µM; with CEM-DNR, 14 µM; with K562, 8.3 µM. The half-maximal inhibitory concentration (IC50) in the data set on HCT-116 came to 17 µM; in data set [18] it was 12 µM. Also, the results for the IC50 at 72 h in data set [3] and in data set [9] were 41 µM and 44 µM, respectively. Further, the outcome in the data set on CCRF-CEM [4], in the data set on CCRF-CEM [5], with CCRF-CEM [7], in the data set with CCRF-CEM [16] and in the data set with CCRF-CEM [17] was Active.

Turning to `C=C(C=O)[C@@H]1CC[C@]2(C(=O)OCc3cn([C@H]4O[C@H](CO)[C@@H](O)[C@H](O)[C@H]4O)nn3)CC[C@]3(C)[C@H](CC[C@@H]4[C@@]5(C)Cc6nccnc6C(C)(C)[C@@H]5CC[C@]43C)[C@@H]12` (stereo in doubt), the Activity in the data set with CCRF-CEM [1] is on record as 3.3%; in the data set on CCRF-CEM [2], 0.6%; in the data set with CCRF-CEM [10], 4.9%; in the data set with CCRF-CEM [11] it was 57.7%; with CCRF-CEM [12], 0.1%; in the data set on CCRF-CEM [13] it was 41.5%. In addition, the Activity in the data set on CCRF-CEM [14] was found to be 5%; in the data set with CCRF-CEM [15], 86.9%. Moreover, the outcome with CCRF-CEM [4], in the data set on CCRF-CEM [5], in the data set on CCRF-CEM [7], in the data set with CCRF-CEM [16] and with CCRF-CEM [17] was Active.

With `C=C(C)[C@@H]1CC[C@]2(C(=O)OCc3oc(=O)oc3C)CC[C@]3(C)[C@H](CC[C@@H]4[C@@]5(C)CCC(=O)C(C)(C)[C@@H]5CC[C@]43C)[C@@H]12`, the Activity in the data set on CCRF-CEM [1] was determined as 1.9%; in the data set on CCRF-CEM [2] it was 85.3%; with CCRF-CEM [10], 2%; in the data set on CCRF-CEM [11] it was 6.5%; in the data set with CCRF-CEM [12] it was 1.1%; in the data set with CCRF-CEM [13], 7.1%. Also, the Activity is 6.4% in the data set on CCRF-CEM [14] and 89.8% in the data set on CCRF-CEM [15]. Besides, the IC50 in the data set with U2OS was 22 µM; in the data set on CCRF-CEM [6], 2.3 µM; with A549, 9.5 µM; in data set [8], 19 µM; with CEM-DNR, 9.1 µM; with K562, 0.87 µM. For the same molecule, the IC50 with HCT-116 was determined as 21 µM; in [18] it was 11 µM. In addition, the IC50 at 72 h in data set [3] is 47 µM; in [9], above 50 µM. The outcome with CCRF-CEM [4], with CCRF-CEM [5], with CCRF-CEM [7] and with CCRF-CEM [16] was Active.

For `C#CCOC(=O)[C@]12CC[C@@H](C(=C)C)[C@@H]1[C@H]1CC[C@@H]3[C@@]4(C)CC[C@H](O)C(C)(C)[C@@H]4CC[C@@]3(C)[C@]1(C)CC2`, the IC50 turned out to be 31 µM in the data set on U2OS; 24 µM in the data set with CCRF-CEM [6]; 43 µM with A549; 31 µM in data set [8]; 40 µM with CEM-DNR; 43 µM in the data set on K562. Besides, the results for the IC50 (in the data set on HCT-116; in data set [18]) were 33 µM and 36 µM, respectively. Further, the IC50 at 72 h is 26 µM in [3] and 32 µM in data set [9].

With `Cc1oc(=O)oc1COC(=O)[C@]12CC[C@@H](C(C)C)[C@@H]1[C@H]1CC[C@@H]3[C@@]4(C)Cc5cccnc5C(C)(C)[C@@H]4CC[C@@]3(C)[C@]1(C)CC2`, the IC50 was above 50 µM with U2OS; 46 µM in the data set with CCRF-CEM [6]; above 50 µM in the data set with A549; above 50 µM in data set [8]; 50 µM with CEM-DNR; 0.043 µM with K562. Moreover, the half-inhibitory concentration (IC50) (in the data set on HCT-116; in data set [18]) was above 50 µM each time. Moreover, the 50% inhibitory concentration (IC50) at 72 h in data set [3] and in data set [9] was above 50 µM each time.

On to `C=C(C)[C@@H]1CC[C@]2(C(=O)OCc3oc(=O)oc3C)CC[C@]3(C)[C@H](CC[C@@H]4[C@@]5(C)Cc6cccnc6C(C)(C)[C@@H]5CC[C@]43C)[C@@H]12`, for which the 50% inhibitory concentration (IC50) was above 50 µM in the data set on U2OS; 35 µM in the data set with CCRF-CEM [6]; 50 µM with A549; above 50 µM in data set [8]; 48 µM in the data set on CEM-DNR; 0.037 µM in the data set on K562. Moreover, the IC50 in the data set with HCT-116 was above 50 µM; in data set [18], 49 µM. Also, the IC50 at 72 h in data set [3] and in [9] was above 50 µM in each case.

Turning to `C[C@H]1[C@H](C)CC[C@]2(C(=O)O)CC[C@]3(C)C(=CC[C@@H]4[C@@]5(C)Cc6cccnc6C(C)(C)[C@@H]5CC[C@]43C)[C@H]12`, the half-inhibitory concentration (IC50) with U2OS was above 50 µM; in the data set on CCRF-CEM [6] it was 38 µM; with A549, above 50 µM; in [8], above 50 µM; with CEM-DNR, 40 µM; with K562, 32 µM. For the same molecule, the IC50 with HCT-116 is above 50 µM; in [18], 47 µM. Besides, the half-inhibitory concentration (IC50) at 72 h in data set [3] and in data set [9] was above 50 µM each time.

For `CC1(C)CC[C@]2(C(=O)O)CC[C@]3(C)C(=CC[C@@H]4[C@@]5(C)Cc6nccnc6C(C)(C)[C@@H]5CC[C@]43C)[C@@H]2C1`, the half-inhibitory concentration (IC50) with U2OS is above 50 µM; in the data set on CCRF-CEM [6] it was 18 µM; in the data set on A549 it was 50 µM; in [8] it was above 50 µM; with CEM-DNR, 14 µM; in the data set on K562 it was above 50 µM. Also, the IC50 came to 50 µM with HCT-116 and 34 µM in [18]. For the same molecule, the half-inhibitory concentration (IC50) at 72 h in [3] and in [9] was above 50 µM throughout.

In the case of `CC1=CC[C@]2(C(=O)O)CC[C@]3(C)C(=CC[C@@H]4[C@@]5(C)Cc6cccnc6C(C)(C)[C@@H]5CC[C@]43C)[C@H]2[C@@H]1C`, the IC50 in the data set on U2OS amounted to 35 µM; with CCRF-CEM [6], 6.3 µM; with A549, 20 µM; in [8] it was 34 µM; in the data set with CEM-DNR, 11 µM; with K562 it was 12 µM. Also, the half-inhibitory concentration (IC50) in the data set on HCT-116 was 34 µM; in [18] it was 13 µM. Also, the IC50 at 72 h in [3] and in data set [9] was above 50 µM in each case.

Source of the values: ChEMBL document CHEMBL5352436, “Triterpenoid pyrazines and pyridines - Synthesis, cytotoxicity, mechanism of action, preparation of prodrugs” (Eur J Med Chem, 2022).
